Measured values published in US8053467B2, “Flavor improving agent, and food and drink containing the same” (Takasago International Corporation, priority 2006, dated 2011).

Assays:
[1] = Sensory evaluation of the flavor improving agents for the sugar-free sweetener; format: in vivo
Experimental: A sugar-free sweetener having the formulation shown in Table 2 was obtained, and 12 g of the sugar-free sweetener was dissolved in 1 kg of ion exchanged water to obtain a 1.2 wt. % aqueous solution. 60 mg of the flavor improving agent in Example 2 was added to 300 g of the aqueous solution to obtain a sugar-free sweetener solution sample containing 0.02% by weight of the flavor improving agent. The content of 5-hydroxymethyl-2-furaldehyde bis(5-formylfurfuryl)acetal in the sugar-free sweetener was 0.00014% by weight.
This sample was evaluated with regard to the items shown in Table 3 by a sensory evaluation method of comparing a sample with a control product. The evaluation was performed by a panel of 5 trained experts. The sample was evaluated with the points in the range of −3 to +3, with setting the control product at 0 point. The control product was not provided with a flavor improving agent (provided with ethanol).
The numerals in the table are the averages of the 5 experts.

[2] = Bitterness threshold by sensory evaluation test (panel of 9 experts); format: in vivo; conditions: for bitterness at the maximum concentration: at 0.1% by weight, the maximum concentration (1000 times the acetal threshold)
Experimental: 100 mg of 5-hydroxymethyl-2-furaldehyde bis(5-formylfurfuryl)acetal obtained in Example 1 was dissolved in 1 mL of ethanol, and 100 mL of water was added to produce 0.1% by weight of a 1 wt. % ethanol solution. This solution was diluted 10-fold with water repeatedly to prepare samples for evaluation. In consideration of the taste of ethanol itself, a 1 wt. % ethanol solution was prepared and diluted 10-fold with water repeatedly to prepare blanks respectively corresponding to the samples for evaluation. The evaluation was performed by a panel of 9 experts. The sensory evaluation test was performed from a sample/blank having a lower concentration. In the order of blanks to samples, the experts held 200 mg of each sample/blank in the mouth and evaluated the difference in taste.

[3] = literature report; cited from earlier work
[4] = Sensory evaluation of the flavor improving agents for the coffee drink; format: in vivo; conditions: summary of Table 10
Experimental: 60 mg of the flavor improving agent in Example 2 was added to 300 g of commercially available canned coffee to obtain a coffee drink containing 0.02% by weight of the flavor improving agent. The content of 5-hydroxymethyl-2-furaldehyde bis(5-formylfurfuryl)acetal in this coffee drink was 0.00014% by weight.
This coffee drink was evaluated with regard to the items shown in Table 10 by a sensory evaluation method of comparing a sample with a control product. The evaluation was performed by a panel of 5 trained experts. Sensory evaluation of the coffee drink was carried out with the points in the range of −3 to +3, with setting the control product at 0 point, in the same manner as in Example 9. The control product was not provided with a flavor improving agent (provided with ethanol).

[5] = same type of test as Example 9, agents prepared as in Example 2 with formulas (2) and (3), also with 100 times the amount
[6] = sugar-free sweetener solution, summary of Table 3

O=Cc1ccc(CO)o1 [formula (2), 5-hydroxymethyl-2-furaldehyde]
flavor improving effect in words [1, 5]: None of the agents exhibited any flavor improving effect and provided various unpleasant tastes including astringency | bitterness at the maximum concentration [2]: did not provide bitterness | reported taste [3]: unpleasant taste

O=Cc1ccc(COC(OCc2ccc(C=O)o2)c2ccc(CO)o2)o1 [acetal compound of the present invention, 5-hydroxymethyl-2-furaldehyde bis(5-formylfurfuryl)acetal]
bitterness threshold ([2]; 1 ppm expressed in %): 0.0001% | bitterness threshold ([2]; 1 ppm expressed in % by weight): 0.0001 % by weight | bitterness threshold ([2]; 10-fold dilutions in water vs ethanol blanks, panel of 9 experts): 1 ppm | bitterness threshold converted to the molar concentration ([2]; converted from 1 ppm): about 10^−3 mM

O.O.O.O.O.O.O.O.O.O.O.O.O=S(=O)([O-])[O-].O=S(=O)([O-])[O-].[Al+3].[K+] [potassium alum]
flavor improving effect in words [1, 6]: poor effect of reducing astringency or improving the sense of volume

αG hesperidin
flavor improving effect in words [1, 6]: poor effect of reducing astringency or improving the sense of volume

O=Cc1ccc(COCc2ccc(C=O)o2)o1 [formula (3)]
flavor improving effect in words [1, 5]: None of the agents exhibited any flavor improving effect and provided various unpleasant tastes including astringency | bitterness at the maximum concentration [2]: did not provide bitterness | reported taste [3]: unpleasant taste

diheterolevulosan II
flavor effect in words [4]: medicine-like unnatural bitterness and are poor in attractiveness

C[C@@H]1O[C@@H](O[C@H]2[C@H](Oc3cc(O)c4c(c3)O[C@H](c3ccc(O)cc3)CC4=O)O[C@H](CO)[C@@H](O)[C@@H]2O)[C@H](O)[C@H](O)[C@H]1O [naringin]
flavor effect in words [4]: medicine-like unnatural bitterness and are poor in attractiveness
